# From patent US11358944B2, “Anxiolytic deuterated compound and medical use thereof” (BEIJING JUNKE HUAYUAN MED TECH CO., LTD., priority 2017, dated 2022)
# What was measured:
# Wistar rats = assay: elevated plus-maze test on rats (anxiolytic effect); type: in vivo, rat; conditions: 30 min after administration, within 5 minutes
# Protocol: The anxiolytic effect of the compounds was evaluated using an elevated plus-maze test on rats.
# The elevated plus-maze consists of two closed arms and two open arms cross each other with length, width and height respectively of 50 cm, 10 cm and 40 cm.
# The central connecting area is 10 cm (length)×10 cm (width), and the maze is 50 cm above the ground, placed in the darker side of the fluorescent lamp and 1 meter away from the lamp. Wistar rats were randomly divided into groups with 5 per group, and the rats were fasted but not deprived of water for 12 hours; The test compound was formulated with 0.5% sodium carboxymethylcellulose into a suspension of certain concentration for intragastric administration. Thirty minutes after administration, the rats were placed in the central connecting area of the maze with the heads facing the direction of the open arms. Then the dwell time of the animals in the open arms within 5 minutes was recorded.
# CYP1A1 = assay: induction of liver metabolic enzyme, liver microsome probe substrate activity after 7-day administration; type: in vivo, rat; conditions: 60 mg/kg intragastric once a day for 7 days; for Relative enzyme activity CYP1A1: rat liver microsome, solvent group = 1; for activity of metabolic enzyme CYP1A1 in the liver compared with solvent group: result in words
# Protocol: (§1) Male Sprague-Dawley rats (220-240 g), were randomly divided into groups with 5 per group; The test compound was formulated with 0.5% sodium carboxymethylcellulose into a preparation of a concentration of 60 mg/kg for intragastric administration once a day and continuously for 7 days. After the last administration, the SD rats were fasted but not deprived of water for 12 hours, and anesthetized. Their blood samples were obtained from the abdominal aortas and made to serum samples for determination of blood biochemical indicators and immunological indicators; EDTA Anticoagulated blood was prepared for general blood routine determination. Referring to the method of the literature (En Li, et al. Effect of buagafuran on liver microsomal cytochrome P450 in rats. J Asian Natural Products Research. 2010; 12: 371-381.), liver microsome was prepared from the liver taken, and the activity of CYP isoenzyme was determined using a probe substrate. The relative enzymatic activity of the test compound was calculated by taking the activity of the solvent group as 1.
# CYP2E1 [1] = assay: as above; type: in vivo, rat; conditions: 60 mg/kg intragastric once a day for 7 days; for Relative enzyme activity CYP2E1: rat liver microsome, solvent group = 1; for activity of metabolic enzyme CYP2E1 in the liver compared with solvent group: result in words
# Protocol: as §1
# [2] = subacute toxicity, 7-day intragastric administration: blood biochemical and hematological indicators; type: in vivo, rat; conditions: 60 mg/kg intragastric once a day for 7 days; for plasma ALT compared with control group (Solvent group) / plasma AST compared with control group (Solvent group): SD rats, result in words; for ALT / AST: male Sprague-Dawley rats
# Protocol: as §1
# CYP2E1 [3] = conditions: literature, rats; cited from earlier work
# [4] = background statement; cited from earlier work
# CYP1A2 = conditions: literature, rats; cited from earlier work
# [5] = background statement; cited from earlier work; remark: listed apart in the source
SMILES,dwell time in the open arms (Wistar rats; 1 mg/kg intragastric) [s],dwell time in the open arms (Wistar rats; 2 mg/kg intragastric) [s],dwell time in the open arms (Wistar rats; 4 mg/kg intragastric) [s],Relative enzyme activity CYP1A1 (CYP1A1),activity of metabolic enzyme CYP1A1 in the liver compared with solvent group (CYP1A1),Relative enzyme activity CYP2E1 (CYP2E1 [1]),activity of metabolic enzyme CYP2E1 in the liver compared with solvent group (CYP2E1 [1]),plasma ALT compared with control group (Solvent group) [2],plasma AST compared with control group (Solvent group) [2],ALT [2] [U/L],AST [2] [U/L],induction effect on liver cytochrome P450 metabolic enzyme CYP2E1 (CYP2E1 [3]),oral bioavailability [4],induction effect on liver cytochrome P450 metabolic enzyme CYP1A2 (CYP1A2),anxiolytic activity [5]
"[2H]C1=C(C([2H])([2H])C([2H])([2H])C([2H])([2H])C([2H])([2H])[2H])[C@@]23C[C@@H](CC[C@]2(C)CC1([2H])[2H])C(C)(C)O3 [I-8, d12-BAF]",70.7 ± 23.2,76.9 ± 14.4,72.3 ± 17.8,–,–,–,–,–,–,–,–,–,–,–,–
"[2H]C1([2H])C=C(C([2H])([2H])C([2H])([2H])C([2H])([2H])C([2H])([2H])[2H])[C@@]23C[C@@H](CC[C@]2(C)C1)C(C)(C)O3 [I-7, d11-BAF]",77.5 ± 23.3,72.6 ± 18.6,73.8 ± 11.0,1.1,not significantly different,0.9,not significantly different,no significant differences,no significant differences,48.7,107.7,–,–,–,–
"[2H]C1([2H])C=C(CCCC)[C@@]23C[C@@H](CC[C@]2(C)C1)C(C)(C)O3 [I-1, d2-BAF]",48.6 ± 21.7,68.4 ± 30.8,47.5 ± 23.6,1.7,not significantly different,1.2,not significantly different,no significant differences,no significant differences,116.1,163.9,–,–,–,–
"CCCCC1=CCC[C@@]2(C)CC[C@@H]3C[C@]12OC3(C)C [BAF, 4-butyl-α-agarofuran, reference compound]",26.7 ± 27.0,45.2 ± 39.7,69.0 ± 49.0,3.8,significantly increased,1.7,significantly increased,significantly increased,significantly increased,189.0,258.7,significant induction effect,low,significant induction effect,significant anxiolytic activity
"[2H]C1([2H])C=C(CCCC)[C@]23OC(C)(C)[C@H](CC[C@]2(C)C1)C3([2H])[2H] [I-3, d4-BAF]",52.5 ± 26.0,67.2 ± 22.0,42.7 ± 25.1,–,–,–,–,–,–,–,–,–,–,–,–
"[2H]C([2H])([2H])C([2H])([2H])C([2H])([2H])C([2H])([2H])C1=CCC[C@@]2(C)CC[C@@H]3C[C@]12OC3(C)C [I-5, d9-BAF]",72.0 ± 15.8,71.2 ± 15.3,76.5 ± 16.0,1.3,not significantly different,1.2,not significantly different,no significant differences,no significant differences,56.6,137.2,–,–,–,–
"[2H]C1=C(CCCC)[C@@]23C[C@@H](CC[C@]2(C)CC1([2H])[2H])C(C)(C)O3 [I-2, d3-BAF]",45.6 ± 19.1,69.7 ± 29.8,39.0 ± 25.7,1.4,not significantly different,1.0,not significantly different,no significant differences,no significant differences,74.0,115.4,–,–,–,–
"[2H]C1=C(C([2H])([2H])C([2H])([2H])C([2H])([2H])C([2H])([2H])[2H])[C@@]23C[C@@H](CC[C@]2(C)CC1)C(C)(C)O3 [I-6, d10-BAF]",73.3 ± 17.6,71.4 ± 19.1,66.3 ± 19.6,–,–,–,–,–,–,–,–,–,–,–,–
